Assay results: US20090209485A1, “MODULATING ANGIOGENESIS WITH NOD FACTORS SUCH AS GLUCOSAMINE OLIGOSACCHARIDES” (priority 2005, published 2009)

Tests used:
Format in all cases: cell-based
rat aorta [1] = assay: Rat aorta angiogenesis assay (vessel outgrowth from aorta fragments in fibrin gel)
Procedure: Thoracic aortas were excised from three to nine month-old female Fischer rats, rinsed in Hanks balanced salt solution containing 2.5 μg/ml amphotericin B (Sigma, St Louis, Mo.), cleaned of periadventitial fibroadipose tissue and cross-sectioned at 1 mm intervals. The fragments were freed of residual clots. Dissecting and sectioning of the vessels was performed with the aid of a dissecting microscope.
Assays were performed in 48-well culture plates (Costar, Cambridge, Mass.). Five hundred microlitres of 3 mg/ml fibrinogen (bovine plasma, Calbiochem, La Jolla, Calif.) in serum free-Medium 199 (GibcoBRL) was added to each well with 5 μg/ml of aprotinin (Sigma) to prevent fibrinolysis by the vessel fragments. One vessel fragment was placed in the centre of the well and 15 μl of thrombin (50 NIH U/ml in 0.15M NaCl: bovine plasma: Sigma St Louis, Mo.) was added to the well and mixed rapidly with the fibrinogen. Fibrin gel formation usually occurred within 30 seconds and ideally the vessel fragment remained suspended in the centre of the gel. After gel formation, 0.5 ml/well of Medium M199 supplemented with 20% fetal calf serum (FCS) (Sigma), 0.1% 6-aminocaproic acid, 1% L-glutamine, 1%-amphotericin B and 0.6% gentamycin was added. The substances tested for angiogenesis modulating activity (compounds PI-88, 1, 2, 3, 4, 5, 6 and 7) were dissolved in 50% acetonitrile in ultrapure water and diluted at least 1:100 in the supplemented medium M199. Immediately after embedding of vessel fragment in the fibrin gels, 0.5 ml of medium containing the test substance was added to each well and each treatment was performed in six wells. Control cultures received medium without the test substance. Vessels were cultured at 37° C. in 5% CO2 in air for five days and the medium was changed on day four. Vessel growth was quantified manually under 40× magnification on day five, with growth being estimated as the percentage of the field (×40) around the vessel fragment that was occupied by vessel outgrowths.

[2] = tested on: HUVEC (human umbilical vein endothelial cells); assay: HUVEC assay: tube formation on matrigel; conditions: 100 μg/ml, overnight incubation; for Inhibition of HUVEC cell “tiling” and/or change in tube morphology+/−: Matrigel + HUVEC
Procedure: HUVEC (human umbilical vein endothelial cells) form tubes on a matrigel support. The tubes form a “paving tile” formation after overnight incubation. Nod factor and derivative thereof were added at 100 μg/ml to determine if they inhibited tube formation and/or caused a change in tube morphology.

rat aorta [3] = assay: Rat aorta angiogenesis assay (vessel outgrowth from aorta fragments in fibrin gel); conditions: Table 4, day 6, concentration not given
Mouse Aorta = assay: Mouse aorta angiogenesis assay (vessel outgrowth from aorta fragments in fibrin gel); conditions: Table 5
Procedure: Thoracic aortas were excised from 6-8 week old female C57 BL/6 mice, rinsed in Hanks balanced salt solution containing 2.5 μg/ml amphotericin B (Sigma, St Louis, Mo.) cleaned of periadventitial fibroadipose tissue and cross-sectioned at 1 mm intervals. The fragments were freed of residual clots. Dissecting and sectioning of the vessels was performed with the aid of a dissecting microscope. Assays were performed in 48-well culture plates (Costar, Cambridge, Mass.). Five hundred microlitres of 3 mg/ml fibrinogen (bovine plasma, Calbiochem, La Jolla, Calif.) in serum free-Medium 199 (GibcoBRL)) was added to each well with 5 ug/ml of aprotinin (Sigma) to prevent fibrinolysis by the vessel fragments. One vessel fragment was placed in the centre of the well and 15 ul of thrombin (50 NIH U/ml in 0.15M NaCl: EC 3.4.21.5 bovine plasma: Sigma St Louis, Mo.) was added to the well and mixed rapidly with the fibrinogen. Fibrin gel formation usually occurred within 30 seconds and ideally the vessel fragment remained suspended in the centre of the gel. […] Vessel growth was quantified manually under 40× magnification on day 7, with growth being estimated as the percentage of the field (×40) around the vessel fragment that was occupied by vessel outgrowths (see Table 5). • ^§Brown, K. J., Maynes, S. F., Bezos, A., Maguire, D. J., Ford, M. D., & Parish, C. […]

[4] = Table 3, Assay 2, testing at 100 μg/mL, '+' = growth above control
[5] = Table 3, Assay 3, testing at 100 μg/mL, '+' = growth above control
[6] = Table 1, 10 μg/mL, % of field occupied by vessel outgrowths, control 82 ± 3.2
[7] = Table 1, 10 μg/mL, '+' = growth above control
[8] = Table 1, 100 μg/mL, % of field around vessel fragment occupied by vessel outgrowths, control 82 ± 3.2
[9] = Table 1, 100 μg/mL, '+' = growth above control
[10] = Table 3, Assay 1, testing at 100 μg/mL
[11] = Table 3, Assay 4, testing at 10 μg/mL
[12] = Table 3, Assay 5, testing at 10 μg/mL
[13] = Table 4, Assay 2, day 5, control growth 48%, concentration not given
[14] = Table 4, Assay 1, day 5, control growth 27%, concentration not given

CC(=O)N[C@H]1[C@H](O[C@H]2[C@H](O)[C@@H](NC(C)=O)[C@H](O[C@H]3[C@H](O)[C@@H](NC(C)=O)[C@H](O[C@H]4[C@H](O)[C@@H](NC(C)=O)C(O)O[C@@H]4CO[C@@H]4O[C@@H](C)[C@@H](O)[C@@H](O)[C@@H]4O)O[C@@H]3CO)O[C@@H]2CO)O[C@H](CO)[C@@H](O[C@@H]2O[C@H](CO)[C@@H](O)[C@H](O)[C@H]2N=[N+]=[N-])[C@@H]1O (some centres unmarked) [Compound 26]
% Inhibition (rat aorta [1]; [4]): 3%
% Inhibition (rat aorta [1]; [5]): 15%

CC(=O)N[C@H]1[C@H](O[C@H]2[C@H](O)[C@@H](NC(C)=O)[C@H](O[C@H]3[C@H](O)[C@@H](NC(C)=O)[C@H](O[C@H]4[C@H](O)[C@@H](NC(C)=O)C(O)O[C@@H]4CO)O[C@@H]3CO)O[C@@H]2CO)O[C@H](CO)[C@@H](O[C@@H]2O[C@H](CO)[C@@H](O)[C@H](O)[C@H]2N)[C@@H]1O (some centres unmarked) [Compound 1]
Inhibition of HUVEC cell “tiling” and/or change in tube morphology+/− [2]: Yes
% Growth (rat aorta [1]; [6]): 80 ± 8.4%
% Inhibit. (rat aorta [1]; [7]): 2.4%
% Growth (rat aorta [1]; [8]): 53 ± 8.0%
% Inhibit. (rat aorta [1]; [9]): 35%

CC(=O)N[C@H]1[C@H](O[C@H]2[C@H](O)[C@@H](NC(C)=O)[C@H](O[C@H]3[C@H](O)[C@@H](NC(C)=O)C(O)O[C@@H]3COS(=O)(=O)O)O[C@@H]2CO)O[C@H](CO)[C@@H](O[C@@H]2O[C@H](CO)[C@@H](O)[C@H](O)[C@H]2N)[C@@H]1O (some centres unmarked) [Compound 21]
% Inhibition (rat aorta [1]; [10]): 74%
% Inhibition (rat aorta [1]; [4]): 41%
% Inhibition (rat aorta [1]; [5]): 40%
% Inhibition (rat aorta [1]; [11]): 24%
% Inhibition (rat aorta [1]; [12]): 33%

CC(=O)N[C@H]1[C@H](O[C@H]2[C@H](O)[C@@H](NC(C)=O)[C@H](O[C@H]3[C@H](O)[C@@H](NC(C)=O)[C@H](O[C@H]4[C@H](O)[C@@H](NC(C)=O)C(O)O[C@@H]4CO[C@@H]4O[C@@H](C)[C@@H](O)[C@@H](O)[C@@H]4O)O[C@@H]3CO)O[C@@H]2CO)O[C@H](CO)[C@@H](O[C@@H]2O[C@H](CO)[C@@H](O)[C@H](O)[C@H]2N)[C@@H]1O (some centres unmarked) [Compound 6]
Inhibition of HUVEC cell “tiling” and/or change in tube morphology+/− [2]: Yes
% Growth (rat aorta [1]; [6]): 73 ± 7.5%
% Inhibit. (rat aorta [1]; [7]): 11%
% Growth (rat aorta [1]; [8]): 53 ± 4.8%
% Inhibit. (rat aorta [1]; [9]): 35%

CC(=O)N[C@H]1[C@H](O[C@H]2[C@H](O)[C@@H](NC(C)=O)[C@H](O[C@H]3[C@H](O)[C@@H](NC(C)=O)C(O)O[C@@H]3CO[C@@H]3O[C@@H](C)[C@@H](O)[C@@H](O)[C@@H]3O)O[C@@H]2CO)O[C@H](CO)[C@@H](O[C@@H]2O[C@H](CO)[C@@H](O[C@@H]3O[C@H](CO)[C@@H](O)[C@H](O)[C@H]3NC(=O)Cc3ccccc3)[C@H](O)[C@H]2NC(C)=O)[C@@H]1O (some centres unmarked) [Compound 24]
% Inhibition (rat aorta [1]; [11]): 3%
% Inhibition (rat aorta [1]; [12]): 1%
% Inhibition (rat aorta [1]; [13]): 6%
% Inhibition (rat aorta [3]; Assay 2, control growth 63%): 8%

CO[C@@H]1[C@H](OC[C@H]2OC(O)[C@H](NC(C)=O)[C@@H](O)[C@@H]2O[C@@H]2O[C@H](CO)[C@@H](O[C@@H]3O[C@H](CO)[C@@H](O[C@@H]4O[C@H](CO)[C@@H](O[C@@H]5O[C@H](CO)[C@@H](O)[C@H](O)[C@H]5N)[C@H](O)[C@H]4NC(C)=O)[C@H](O)[C@H]3NC(C)=O)[C@H](O)[C@H]2NC(C)=O)O[C@@H](C)[C@@H](O)[C@H]1O (some centres unmarked) [Compound 7]
Inhibition of HUVEC cell “tiling” and/or change in tube morphology+/− [2]: Yes
% Growth (rat aorta [1]; [6]): 94 ± 4.0%
% Growth (rat aorta [1]; [8]): 90 ± 6.3%

PI-88 [reference compound]
Inhibition of HUVEC cell “tiling” and/or change in tube morphology+/− [2]: Yes
effect on HUVEC tube formation ([2]; matrigel): affected tube formation
% Inhibition (Mouse Aorta; 10 μg/ml): 30%
% Inhibition (Mouse Aorta; 100 μg/ml): 93%
% Growth (rat aorta [1]; [8]): 25 ± 5.4%
% Inhibit. (rat aorta [1]; [9]): 69%
% Inhibit. (rat aorta [1]; Table 2, 100 μg/mL): 47%
% Growth (rat aorta [1]; Table 2, 100 μg/mL, control 74 ± 3.8): 39 ± 6.1%
% Inhibition (rat aorta [1]; [10]): 82%
% Inhibition (rat aorta [1]; [4]): 77%
% Inhibition (rat aorta [1]; [5]): 68%
% Inhibition (rat aorta [1]; [11]): 18%
% Inhibition (rat aorta [1]; [12]): 14%
% Inhibition (rat aorta [1]; [14]): 91%
% Inhibition (rat aorta [1]; Table 4, Assay 1, day 7, control growth 68%, concentration not given): 77%
% Inhibition (rat aorta [1]; [13]): 66%
% Inhibition (rat aorta [1]; Table 4, Assay 2, day 7, control growth 83%, concentration not given): 68%
% Inhibition (rat aorta [3]; Assay 1, control growth 43%): 80%
% Inhibition (rat aorta [3]; Assay 2, control growth 63%): 70%

CC(=O)N[C@H]1C(O)O[C@H](CO)[C@@H](O[C@@H]2O[C@H](CO)[C@@H](O)[C@H](O)[C@H]2N)[C@@H]1O (some centres unmarked) [Compound 22]
% Inhibition (rat aorta [1]; [10]): 5%
% Inhibition (rat aorta [1]; [11]): 24%
% Inhibition (rat aorta [1]; [12]): 16%
% Inhibition (rat aorta [1]; [14]): 33%
% Inhibition (rat aorta [1]; [13]): 6%
% Inhibition (rat aorta [3]; Assay 2, control growth 63%): 0%

CC(=O)N[C@H]1[C@H](O[C@H]2[C@H](O)[C@@H](NC(C)=O)[C@H](O[C@H]3[C@H](O)[C@@H](NC(C)=O)C(O)O[C@@H]3CO)O[C@@H]2CO)O[C@H](CO)[C@@H](O[C@@H]2O[C@H](CO)[C@@H](O)[C@H](O)[C@H]2N)[C@@H]1O (some centres unmarked) [Compound 23]
% Inhibition (rat aorta [1]; [4]): 66%
% Inhibition (rat aorta [1]; [5]): 29%
% Inhibition (rat aorta [1]; [11]): 14%
% Inhibition (rat aorta [1]; [12]): 24%

CCCCCCC=CCCCOc1cccc(C(=O)N[C@H]2[C@H](O[C@H]3[C@H](O)[C@@H](NC(C)=O)[C@H](O[C@H]4[C@H](O)[C@@H](NC(C)=O)[C@H](O[C@H]5[C@H](O)[C@@H](NC(C)=O)[C@H](O[C@H]6[C@H](O)[C@@H](NC(C)=O)C(O)O[C@@H]6CO[C@@H]6O[C@@H](C)[C@@H](O)[C@@H](O)[C@@H]6O)O[C@@H]5CO)O[C@@H]4CO)O[C@@H]3CO)O[C@H](CO)[C@@H](O)[C@@H]2O)c1 (some centres unmarked) [Compound 25]
% Inhibition (rat aorta [1]; [4]): 76%
% Inhibition (rat aorta [1]; [5]): 73%
% Inhibition (rat aorta [1]; [11]): 24%
% Inhibition (rat aorta [1]; [12]): 21%
% Inhibition (rat aorta [1]; Table 3, Assay 6, testing at 1.0 μg/mL): 8%
% Inhibition (rat aorta [1]; Table 3, Assay 7, testing at 1.0 μg/mL): 3%
